Test results reported in patent US20080300276A1, “Heterocyclic Carboxylic Acide Amide Derivatives” (priority 2004, published 2008).
Read-outs that look alike come from different tables or passages of the source. Marks after values point to notes of the source that are not given here.

Columns and labels:
[1] = biological target: T1, NR2B containing NMDA receptors (Rattus norvegicus, UniProt P35439+Q00960); assay: NMDA antagonist potency by fluorimetric intracellular calcium measurement in rat cortical cell culture; assay type: cell-based; conditions: fluorimetric method, 40 μM NMDA
T1 construct: primary neocortical cell cultures derived from 17 day old Charles River rat embryos; endogenous in cells; host or cells: primary rat embryonic (E17) neocortical cell culture, 3-7 days in vitro
T1 sequence (Q00960 27-1482, other chains not shown): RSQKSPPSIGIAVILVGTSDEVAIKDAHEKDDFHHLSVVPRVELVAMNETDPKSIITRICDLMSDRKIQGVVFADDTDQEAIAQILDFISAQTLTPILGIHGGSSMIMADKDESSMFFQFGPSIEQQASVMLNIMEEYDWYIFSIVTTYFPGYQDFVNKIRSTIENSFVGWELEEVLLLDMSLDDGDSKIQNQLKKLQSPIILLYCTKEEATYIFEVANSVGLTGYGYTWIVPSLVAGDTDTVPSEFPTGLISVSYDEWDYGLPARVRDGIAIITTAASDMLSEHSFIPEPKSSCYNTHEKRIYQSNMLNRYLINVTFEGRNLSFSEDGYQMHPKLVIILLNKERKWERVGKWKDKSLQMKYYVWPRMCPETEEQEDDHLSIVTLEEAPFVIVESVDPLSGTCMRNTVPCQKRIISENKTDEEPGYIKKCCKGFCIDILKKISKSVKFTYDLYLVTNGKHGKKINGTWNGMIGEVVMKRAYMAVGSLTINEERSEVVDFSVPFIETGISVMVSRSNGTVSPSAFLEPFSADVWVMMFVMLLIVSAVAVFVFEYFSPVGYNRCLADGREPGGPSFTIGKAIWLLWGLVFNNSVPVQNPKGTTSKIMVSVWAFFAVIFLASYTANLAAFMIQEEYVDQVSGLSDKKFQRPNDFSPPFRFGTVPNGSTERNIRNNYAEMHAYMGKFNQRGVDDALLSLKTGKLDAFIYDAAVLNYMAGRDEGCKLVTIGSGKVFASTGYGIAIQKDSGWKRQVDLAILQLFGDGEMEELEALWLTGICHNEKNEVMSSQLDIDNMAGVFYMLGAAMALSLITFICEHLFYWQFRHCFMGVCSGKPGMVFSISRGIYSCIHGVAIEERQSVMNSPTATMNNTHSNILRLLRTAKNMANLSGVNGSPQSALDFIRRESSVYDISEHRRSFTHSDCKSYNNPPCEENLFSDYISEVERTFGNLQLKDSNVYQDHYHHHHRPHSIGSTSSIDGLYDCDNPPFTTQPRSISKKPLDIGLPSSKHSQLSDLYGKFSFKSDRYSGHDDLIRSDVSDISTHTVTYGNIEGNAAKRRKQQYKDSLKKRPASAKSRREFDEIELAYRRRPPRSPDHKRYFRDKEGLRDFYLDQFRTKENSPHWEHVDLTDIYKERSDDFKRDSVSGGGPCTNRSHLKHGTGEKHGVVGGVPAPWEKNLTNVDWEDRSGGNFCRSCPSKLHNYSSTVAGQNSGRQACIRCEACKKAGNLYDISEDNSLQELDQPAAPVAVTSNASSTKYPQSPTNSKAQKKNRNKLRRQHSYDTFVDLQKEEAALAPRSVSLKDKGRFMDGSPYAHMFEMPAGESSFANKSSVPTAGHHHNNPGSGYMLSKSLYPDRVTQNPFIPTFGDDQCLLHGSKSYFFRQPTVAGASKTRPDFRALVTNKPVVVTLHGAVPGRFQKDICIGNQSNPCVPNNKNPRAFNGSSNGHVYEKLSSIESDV
Protocol: Assessment of NMDA Antagonist Potency In Vitro by Measurement of Intracellular Calcium Concentration with a Plate Reader Fluorimeter in Rat Cortical Cell Culture
The intracellular calcium measurements were carried out on primary neocortical cell cultures derived from 17 day old Charles River rat embryos (for the details on the preparation of neocortical cell culture see Johnson, M. I.; Bunge, R. P. (1992): Primary-cell cultures of peripheral and central neurons and glia. In: Protocols for Neural Cell Culture, eds: Fedoroff, S.; Richardson A., The Humana Press Inc., 51-75. After isolation the cells were plated onto standard 96-well microplates and the cultures were maintained in an atmosphere of 95% air-5% CO2 at 37° C. until the calcium measurements.
The cultures were used for the intracellular calcium measurements after 3-7 days in vitro. The cells at this in vitro age are believed to express predominantly NR2B containing NMDA receptors [Mol. Pharmacol. 45, 846-853. (1994)]. Before the measurement the cells were loaded with a fluorescent Ca^2+-sensitive dye, Fluo-4/AM (2 μM). To stop the loading the cells were washed twice with the solution used for the measurement (140 mm NaCl, 5 mM KCl, 2 mM CaCl2, 5 mM HEPES, 5 mM HEPES-Na, 20 mM glucose, 10 mM glycine, pH=7.4). After washing the test compounds were added to the cells in the above solution (90 μl/well). Intracellular calcium measurements were carried out with a plate reader fluorimeter: elevation of Fluo-4-fluorescence and so, intracellular calcium concentration was induced by application of 40 μM NMDA. Inhibitory potency of the test compounds was assessed by measuring the reduction in the calcium elevation in the presence of different concentrations of the compounds.
(§1) Dose-response curves and IC50-values were calculated using data derived from at least three independent experiments. Inhibitory potency of a compound at a single concentration point was expressed as percent inhibition of the NMDA response. Sigmoidal concentration-inhibition curves were fit to the data and IC50 values were determined as the concentration that produces half of the maximal inhibition caused by the compound.

[2] = test system: formalin response (licking/biting of the injected paw); assay: Mouse formalin test (second phase); assay type: in vivo; conditions: for ED50: Mus musculus, read-out: Formalin ED50
Protocol: Injection of diluted formalin into the hind paw of rats or mice is known to elicit a biphasic pain-related behaviour measured as time spent by licking/biting of the injured paw. The second phase is generally defined as pain related events detected in the 15-60 min. time interval ater formalin injection, with peak activity at around 30 min. It is known that NMDA receptors are involved in the second phase of response to formalin injection and this behavioural response is sensitive to blockade of NMDA receptors [Dickenson, A. and Besson J.-M. (Editors): Chapter 1, pp. 6-7: Animal models of Analgesia; and Chapter 8, pp. 180-183: Mechanism of Central Hypersensitivity: Excitatory Amino Acid Mechanisms and Their Control—In Pharmacology of Pain. Springer-Verlag (Berlin) 1997.] Therefore, we used the second phase of formalin test to characterize the efficacy of compounds in vivo. Inhibition of the second phase of response is considered to indicate an analgesic effect against chemically-induced persistent pain [Hunskaar, S., et al.: Formalin Test in Mice, a Useful Technique for Evaluating Mild Analgesics, Journal of Neuroscience Methods, 14 (1985) 69-76.]
Male albino Charles River NMRI mice (20-25 g) were used. Prior to the experiment any solid food was withdrawn for approx. 16 hours but the animals had free access to 20% glucose solution. The animals were allowed 1 hour acclimatization period in a glass cylinder (cc. 15 cm in diameter), then moved to an identical cylinder with a mirror placed behind to facilitate observation. The test substances were suspended in 5% tween-80 (10 ml per kg body weight) and administered orally by gavage 15 min before the formalin injection (20 μl of 1% formalin in 0.9% saline injected subcutaneously into the dorsal surface of the right hindpaw). The time spent by licking and biting of the injected paw was measured from 20 to 25 min. after the formalin injection.

[3] = biological target: T2, recombinant NMDA receptors NR1/NR2A (Homo sapiens, UniProt Q05586+Q12879); assay: Inhibition of NMDA evoked cytosolic calcium elevations in transfected HEK293 cells; assay type: cell-based; conditions: for inhibition at 10 µM / inhibition at 15 µM: HEK293; for inhibition at 10 µM: read-out: NR1-3/NR2A % inhibition at 10 μM
T2 construct: expressed in transfected cells
T2 sequence (Q12879 23-1464, other chains not shown): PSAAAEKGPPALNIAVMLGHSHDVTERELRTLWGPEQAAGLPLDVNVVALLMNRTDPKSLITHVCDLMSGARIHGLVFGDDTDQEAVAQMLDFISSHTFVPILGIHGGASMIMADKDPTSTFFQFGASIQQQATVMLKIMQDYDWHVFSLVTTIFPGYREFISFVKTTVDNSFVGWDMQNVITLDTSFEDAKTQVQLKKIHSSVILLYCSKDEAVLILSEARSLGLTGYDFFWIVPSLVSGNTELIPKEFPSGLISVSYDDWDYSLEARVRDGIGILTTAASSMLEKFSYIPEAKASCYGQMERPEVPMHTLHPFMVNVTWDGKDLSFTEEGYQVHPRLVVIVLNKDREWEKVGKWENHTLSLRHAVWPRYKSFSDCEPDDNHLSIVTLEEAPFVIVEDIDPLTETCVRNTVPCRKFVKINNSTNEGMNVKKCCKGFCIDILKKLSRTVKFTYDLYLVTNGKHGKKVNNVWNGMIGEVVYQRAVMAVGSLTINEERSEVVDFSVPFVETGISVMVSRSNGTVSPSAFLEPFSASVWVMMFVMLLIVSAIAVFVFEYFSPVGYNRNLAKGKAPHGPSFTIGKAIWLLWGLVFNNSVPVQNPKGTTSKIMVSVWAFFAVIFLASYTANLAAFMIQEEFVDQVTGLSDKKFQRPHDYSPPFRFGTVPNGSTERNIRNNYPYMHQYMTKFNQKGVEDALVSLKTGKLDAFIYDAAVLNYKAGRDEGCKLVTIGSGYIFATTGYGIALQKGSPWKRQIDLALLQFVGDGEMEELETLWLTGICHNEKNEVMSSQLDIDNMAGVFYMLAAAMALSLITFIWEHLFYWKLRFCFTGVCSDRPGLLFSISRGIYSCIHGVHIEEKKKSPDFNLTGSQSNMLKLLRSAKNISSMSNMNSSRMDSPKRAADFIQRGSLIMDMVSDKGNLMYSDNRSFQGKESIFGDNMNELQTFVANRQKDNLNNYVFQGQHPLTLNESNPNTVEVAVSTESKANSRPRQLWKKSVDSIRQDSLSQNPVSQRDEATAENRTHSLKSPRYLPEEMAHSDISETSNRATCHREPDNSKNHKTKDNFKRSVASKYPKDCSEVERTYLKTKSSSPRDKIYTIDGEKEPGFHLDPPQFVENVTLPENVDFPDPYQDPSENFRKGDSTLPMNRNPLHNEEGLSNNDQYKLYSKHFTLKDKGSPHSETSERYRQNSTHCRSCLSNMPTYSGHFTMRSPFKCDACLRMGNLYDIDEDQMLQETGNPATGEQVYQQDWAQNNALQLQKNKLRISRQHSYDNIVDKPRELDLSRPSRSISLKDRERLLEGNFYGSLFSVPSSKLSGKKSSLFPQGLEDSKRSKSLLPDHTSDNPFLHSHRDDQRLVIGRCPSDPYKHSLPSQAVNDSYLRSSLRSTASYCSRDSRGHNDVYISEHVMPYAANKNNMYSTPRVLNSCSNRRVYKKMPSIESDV
Protocol: (1997); Neurochemistry International, 43, 19-29. (2003)]. […] Compounds were tested for their inhibitory action on NMDA evoked cytosolic calcium elevations in fluorescent calcium measurements. Studies were performed 48-72 h after addition of the inducing agent. Ketamine ([…] was also present during the induction in order to prevent cytotoxicity.
as §1

locomotor activity = conditions: cited from earlier work; for effect on locomotor activity (in words): animal behavioural studies
[4] = test system: spontaneous locomotor activity; assay: Spontaneous locomotor activity (LMA) in mice; assay type: in vivo, mouse; conditions: for locomotor stimulation relative to analgesic dose range (in words): mouse, in vivo
Protocol: Male NMRI mice weighing 20-22 g were used in the experiments.
Spontaneous locomotor activity was measured in a four-channel activity monitor. The apparatus consisted of acrylic cages. (43 cm×43 cm×32 cm) equipped with 2×16 pairs of photocells along all the bottom axis of the cage. An additional array of photocells (16 pairs) was placed along two opposite sides of the cage at the height of 10 cm in order to detect rearing responses.
Experimental groups consisted of 10 animals. Thirty minutes after the oral administration of the test compound or vehicle (tween-80), the animals were individually placed in one of four cages for one hour. Horizontal and vertical movements were determined as the number of beam interruptions for one hour at 15 min intervals.
Mean ±SE of horizontal activity data of each group was calculated then percentual changes compared to the control (vehicle-treated) group were determined. A compound was considered to cause locomotor stimulation when its effect exceeded 50% increase in beam interruptions. Consequently, doses defined as free of stimulatory action (UM) produced less than 50% increase.

[5] = read-out: rat cortical cells IC50
[6] = oral, 15 min before formalin, licking time 20 to 25 min
[7] = read-out: Rat cortical cells (NR2B) appr. IC50

With `C[C@@H](CN1CCC(Cc2ccccc2)CC1)[C@@H](O)c1ccc(O)cc1` (relative stereo) [Ro 25-6981, R-(R*,S*)-1-(4-hydroxyphenyl)-2-methyl-3-[4-(phenylmethyl)piperidin-1-yl]-1-propanol] the IC50 [1, 5] was 159 nM, the “Formalin ED50” value [2, 6] was >20* mg/kg and the “NR1-3/NR2A % inhibition at 10 μM” value [3] was 1.0%. For the same compound, the “effect on locomotor activity (in words)” value (locomotor activity) was “increase locomotor activity” and the “effect on locomotor activity (in words)” value (locomotor activity; listed as Ro 256981) was “no such effect was observed”.
For `O=c1[nH]c2ccc([S+]([O-])CCN3CCC(Cc4ccc(F)cc4)CC3)cc2o1` (stereo not drawn) [CI-1041, 6-{2-[4-(4-fluoro-benzyl)-piperidin-1-yl]-ethanesulfinyl}-3H benzooazol-2-one], the LMA % increase ([4]; dose 10 mg/kg oral) was 137%, the “locomotor stimulation relative to analgesic dose range (in words)” value [4] was “no separation between the doses causing analgesia and those stimulating locomotor activity” and the ED50 [2, 6] was 2.4 mg/kg. The inhibition at 10 µM [3] was 21%.
In the case of `C[C@@H]([C@@H](O)c1ccc(O)cc1)N1CCC(O)(c2ccccc2)CC1` [CP-101,606], the “Formalin ED50” value [2, 6] is given as >20* mg/kg, the “NR1-3/NR2A % inhibition at 10 μM” value [3] is given as 2.5% and the “effect on locomotor activity (in words)” value (locomotor activity) is given as “no such effect was observed”. The “dose up to which locomotor stimulating effect is lacking” value (locomotor activity; i.p.) was at most 100 mg/kg and the “dose up to which locomotor stimulating effect is lacking” value (locomotor activity; s.c.) was “up to 56 mg/kg”.
`Cc1ccc(CC2(O)CCN(CCOc3ccc(O)cc3)CC2)cc1` [Co-101244, 1-[2-(4-hydroxyphenoxy)ethyl]-4-hydroxy-4-(4-methylbenzyl)piperidine] showed an inhibition at 10 µM [3] of -8.7%.
With `O=C(CCN1CCC(Cc2ccc(F)cc2)CC1)c1ccc2[nH]c(=O)oc2c1` [EMD 95885] the IC50 [1, 5] was 35 nM and the “NR1-3/NR2A % inhibition at 10 μM” value [3] was 0.1%.
In the case of `O=C(c1nc2ccc(O)cc2[nH]1)N1CCC(=Cc2ccccc2)CC1` [Example 1, (4-Benzylidene-piperidine-1-yl)-(6-hydroxy-1H-benzoimidazol-2-yl)-methanone], the IC50 [1, 7] is reported as under 50 nM, the LMA % increase ([4]; dose 15 mg/kg oral) is reported as 27% and the LMA % increase ([4]; dose 30 mg/kg oral) is reported as 63%. It also gave an ED50 [2, 6] of 2.6 mg/kg and an inhibition at 15 µM [3] of 33%.
`Cc1ccc(C=C2CCN(C(=O)c3nc4ccc(O)cc4[nH]3)CC2)cc1` [Example 2, (6-Hydroxy-1H-benzoimidazol-2-yl)-[4-(4-methyl-benzylidene)-piperidine-1-yl]-methanone] gave an IC50 [1, 7] of under 50 nM and an inhibition at 15 µM [3] of 34%.
Work on `O=C(c1nc2ccc(O)cc2[nH]1)N1CCC(=Cc2ccc(F)cc2)CC1` [Example 3, [4-(4-Fluoro-benzylidene)-piperidine-1-yl]-(6-hydroxy-1H-benzoimidazol-2-yl)-methanone] yielded an IC50 [1, 7] of under 50 nM and an inhibition at 15 µM [3] of under 30%.
`O=C(c1nc2ccc(O)cc2[nH]1)N1CCC(=Cc2ccc(Cl)cc2)CC1` [Example 4, [4-(4-Chloro-benzylidene)-piperidine-1-yl]-(6-hydroxy-1H-benzoimidazol-2-yl)-methanone] gave an IC50 [1, 7] of under 50 nM and an inhibition at 15 µM [3] of under 30%.
In the case of `COc1ccc(C=C2CCN(C(=O)c3nc4ccc(O)cc4[nH]3)CC2)cc1` [Example 5, (6-Hydroxy-1H-benzoimidazol-2-yl)-[4-(4-methoxy-benzylidene)-piperidine-1-yl]-methanone], the IC50 [1, 7] is reported as under 50 nM and the inhibition at 15 µM [3] is reported as 52%.
`O=C(c1cc2ccc(O)cc2[nH]1)N1CCC(=Cc2ccccc2)CC1` [Example 6, (4-Benzylidene-piperidine-1-yl)-(6-hydroxy-1H-indol-2-yl)-methanone] gave an IC50 [1, 7] of 50 to 500 nM, an LMA % increase ([4]; dose 3.75 mg/kg oral) of 0% and an LMA % increase ([4]; dose 7.5 mg/kg oral) of 55%. It also gave an LMA % increase ([4]; dose 15 mg/kg oral) of 69%, an ED50 [2, 6] of 0.43 mg/kg and an inhibition at 15 µM [3] of under 30%.
Work on `C[C@]12N[C@H](Cc3ccccc31)c1ccccc12` [MK-801, (+)-5-Methyl-10,11-dihydro-5H-dibenzo[a,d]cyclohepten-5,10-imine] yielded an LMA % increase ([4]; dose 0.1 mg/kg oral) of 114%, an LMA % increase ([4]; dose 0.3 mg/kg oral) of 217% and an ED50 ([2]; po) of 0.15 mg/kg.
With `O=C(c1cc2ccc(O)cc2[nH]1)N1CCC(Cc2ccccc2)CC1` [“B”, (4-benzyl-piperidin-1-yl)-(6-hydroxy-1H-indol-2-yl)-methanone] the LMA % increase ([4]; dose 1.875 mg/kg oral) was 90%, the “locomotor stimulation relative to analgesic dose range (in words)” value [4] was “no separation between the doses causing analgesia and those stimulating locomotor activity” and the ED50 [2, 6] was 1.7 mg/kg.
With “(benzyl-piperidin-1-yl)-(6-hydroxy-1H-benzoimidazol-2-yl)-methanone [“A”]” the LMA % increase ([4]; dose 1.875 mg/kg oral) was 80%, the “locomotor stimulation relative to analgesic dose range (in words)” value [4] was “no separation between the doses causing analgesia and those stimulating locomotor activity” and the “Formalin ED50” value [2, 6] was 1.6 mg/kg.
